According to patent US9233982B2, “Spiro tetrahydro—benzothiophen derivatives useful for the treatment neurodegenerative diseases” (Ares Trading S.A., priority 2012, dated 2016):
Where a name gives a salt, the structure may show the parent alone.

Key:
BACE-1 [1] = biological target: T1, BACE-1 (Homo sapiens, UniProt P56817); experiment: LanthaScreen BACE1 biochemical assay (TR-FRET)
Method: Biochemical Assay to Assess Compounds for Inhibition of BACE-1
The LanthaScreen™ BACE1 assay kit from Invitrogen (Catalogue number PV4748) was used as the primary assay in the screening cascade.
Briefly, the test compound was incubated with the enzyme and substrate for 1 hour at room temperature in a reaction volume of 15 μl and then 5 nM terbium labelled anti-biotin antibody was added to stop the reaction and the solution incubated for a further 1 hour at room temperature. The microplate was read on an Envision plate reader fitted with a photometric 340 nm excitation filter and the amount of substrate that had been cleaved was represented by the TR-FRET ratio, calculated by dividing the Fluorescein emission signal (520 nm) by the Terbium emission signal (495 nm).

BACE-1 [2] = biological target: T1, BACE-1; experiment: HTRF cell based assay, Aβ1-40 peptide secreted by recombinant HEK293 cells; design: endogenous in cells; host or cells: recombinant HEK293 cells engineered to over-produce APP; details: for EC50: Aβ1-40 secretion, recombinant HEK293 cells producing APP, overnight treatment, read-out: Cellular assay EC50 Ranges
Method: The cell based assay used to support the program utilized HTRF assay reagents from Cisbio (Catalogue number 62B40PEB) to quantify the amount of Aβ1-40 peptide secreted by recombinant HEK293 cells. The cells were engineered to produce high quantities of APP, the precursor for Aβ1-40 peptide, under hygromycin selection pressure. Briefly, cells were plated into 384-well microplates and allowed to settle for 2 hours prior to compound addition. Following overnight treatment with compound, the media containing secreted peptide was transferred into a low volume assay plate for quantification with HTRF immunoassay reagents. Adhering to the manufacturers protocol for quantification, a TR-FRET signal is obtained in the presence of the Aβ1-40 peptide following addition of a cryptate conjugated antibody and an XL665 conjugated antibody, each raised to a different epitope of the Aβ1-40 peptide. A low FRET signal is obtained when cells are treated with compounds that inhibit APP cleavage and peptide secretion.

T1 sequence (P56817 46-501): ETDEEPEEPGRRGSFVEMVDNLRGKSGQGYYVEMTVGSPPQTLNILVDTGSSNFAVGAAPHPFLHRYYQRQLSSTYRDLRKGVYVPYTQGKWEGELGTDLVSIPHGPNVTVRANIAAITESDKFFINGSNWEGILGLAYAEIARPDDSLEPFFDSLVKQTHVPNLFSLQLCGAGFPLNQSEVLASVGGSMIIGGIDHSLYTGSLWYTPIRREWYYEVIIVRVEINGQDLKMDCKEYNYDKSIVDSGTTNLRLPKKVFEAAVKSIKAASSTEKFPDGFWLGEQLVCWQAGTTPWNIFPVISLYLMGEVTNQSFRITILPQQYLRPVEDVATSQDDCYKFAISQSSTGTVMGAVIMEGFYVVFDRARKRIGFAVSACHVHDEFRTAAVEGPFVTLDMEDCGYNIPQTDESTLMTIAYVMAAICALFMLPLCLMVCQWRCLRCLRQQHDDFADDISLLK

| IC50 (BACE-1 [1]) | EC50 (BACE-1 [2]) | IC50 (BACE-1 [2]; reference inhibitor, inhibition of Aβ1-40 peptide secretion, 30,000 cells per well) | Compound |
| --- | --- | --- | --- |
| 5 to 65 µM | 5 to 50 µM |  | NC1=NC2(CCS1)CC(c1ccccc1)Cc1sc(-c3cccc(Br)c3)cc12 (racemic) [Example 43] |
| 1 to 5 µM | 5 to 50 µM |  | COc1ccc(-c2cccc(-c3cc4c(s3)CC(c3ccccc3)CC43CCSC(N)=N3)c2)cc1 (racemic) [Example 44] |
| 5 to 65 µM | 1 to 5 µM |  | COCC1Cc2sc(-c3cccc(C#N)c3)cc2C2(CCSC(N)=N2)C1 (racemic) [Example 45, 3-(2′-amino-6-(methoxymethyl)-5′,6,6′,7-tetrahydro-5H-spiro[benzo[b]thiophene-4,4′-[1,3]thiazine]-2-yl)benzonitrile, Hydrochloride Salt] |
| 5 to 65 µM | 1 to 5 µM |  | N#Cc1cccc(-c2cc3c(s2)CCC(Cc2ccccc2)C32CCSC(N)=N2)c1 (racemic) [Example 47, 3-(2′-amino-5-benzyl-5′,6,6′,7-tetrahydro-5H-spiro[benzo[b]thiophene-4,4′-[1,3]thiazine]-2-yl)benzonitrile] |
| 1 to 5 µM | 5 to 50 µM |  | COc1ccc(CC2CCc3sc(-c4cccc(C#N)c4)cc3C23CCSC(N)=N3)cc1 (racemic) [Example 48] |
| 5 to 65 µM | 1 to 5 µM |  | CN1C(=O)[C@]2(CCCc3sc(-c4cccc(C#N)c4)cc32)N=C1N (single isomer, unassigned) [Example 50] |
| < 1 µM | ≤ 1 µM |  | CN1C(=O)[C@@]2(CCCc3sc(-c4cccc(C#N)c4)cc32)N=C1N (single isomer, unassigned) [Example 51] |
| < 1 µM | ≤ 1 µM |  | N#Cc1cccc(-c2cc3c(s2)CCCC32CCSC(N)=N2)c1 (stereo in doubt) [Example 2, (R)-3-(2′-amino-5′,6,6′,7-tetrahydro-5H-spiro[benzo[b]thiophene-4,4′-[1,3]thiazine]-2-yl)benzonitrile] |
| 1 to 5 µM | ≤ 1 µM |  | N#Cc1cccc(-c2cc3c(s2)CCCC32CCSC(N)=N2)c1 (centres unmarked) [Example 1, 3-(2′-amino-5′,6,6′,7-tetrahydro-5H-spiro[benzo[b]thiophene-4,4′-[1,3]thiazine]-2-yl)benzonitrile, Formate Salt] |
| 5 to 65 µM | 5 to 50 µM |  | NC1=NC2(CCCc3sc(-c4ccc(F)cc4)cc32)CCS1 (centres unmarked) [Example 3] |
| 5 to 65 µM | 5 to 50 µM |  | NC1=NC2(CCCc3sc(-c4cccnc4)cc32)CCS1 (centres unmarked) [Example 4] |
| 5 to 65 µM | 5 to 50 µM |  | COc1ccc(-c2cc3c(s2)CCCC32CCSC(N)=N2)cn1 (centres unmarked) [Example 5] |
| 5 to 65 µM | 5 to 50 µM |  | NC1=NC2(CCCc3sc(-c4ccc5c(c4)CCO5)cc32)CCS1 (centres unmarked) [Example 6] |
| 5 to 65 µM | 5 to 50 µM |  | NC1=NC2(CCCc3sc(-c4cncnc4)cc32)CCS1 (centres unmarked) [Example 7] |
| 5 to 65 µM | 5 to 50 µM |  | NC1=NC2(CCCc3sc(-c4ccc5c(c4)OCO5)cc32)CCS1 (centres unmarked) [Example 8] |
| 5 to 65 µM | 1 to 5 µM |  | CS(=O)(=O)c1cccc(-c2cc3c(s2)CCCC32CCSC(N)=N2)c1 (centres unmarked) [Example 9] |
| 1 to 5 µM | ≤ 1 µM |  | COc1ccc(C#N)cc1-c1cc2c(s1)CCCC21CCSC(N)=N1 (centres unmarked) [Example 10] |
| 5 to 65 µM | 1 to 5 µM |  | COc1cc(C#N)cc(-c2cc3c(s2)CCCC32CCSC(N)=N2)c1F (centres unmarked) [Example 11] |
| 5 to 65 µM | 1 to 5 µM |  | N#Cc1cc(F)cc(-c2cc3c(s2)CCCC32CCSC(N)=N2)c1 (centres unmarked) [Example 12] |

| IC50 (BACE-1 [1]) | EC50 (BACE-1 [2]) | IC50 (BACE-1 [2]; reference inhibitor, inhibition of Aβ1-40 peptide secretion, 30,000 cells per well) | Compound |
| --- | --- | --- | --- |
| 5 to 65 µM | 5 to 50 µM |  | COC(=O)c1cccc(-c2cc3c(s2)CCCC32CCSC(N)=N2)c1 (centres unmarked) [Example 13] |
| 1 to 5 µM | 1 to 5 µM |  | N#Cc1cc(-c2cc3c(s2)CCCC32CCSC(N)=N2)ccc1F (centres unmarked) [Example 14] |
| 1 to 5 µM | ≤ 1 µM |  | N#Cc1ccc(F)c(-c2cc3c(s2)CCCC32CCSC(N)=N2)c1 (centres unmarked) [Example 15] |
| 1 to 5 µM | ≤ 1 µM |  | N#Cc1ccc(Cl)c(-c2cc3c(s2)CCCC32CCSC(N)=N2)c1 (centres unmarked) [Example 16] |
| 1 to 5 µM | 1 to 5 µM |  | COc1cc(C#N)cc(-c2cc3c(s2)CCCC32CCSC(N)=N2)c1 (centres unmarked) [Example 17] |
| 5 to 65 µM | 1 to 5 µM |  | COc1ncc(-c2cc3c(s2)CCCC32CCSC(N)=N2)cc1C#N (centres unmarked) [Example 18] |
| 5 to 65 µM | 1 to 5 µM |  | N#Cc1cncc(-c2cc3c(s2)CCCC32CCSC(N)=N2)c1 (centres unmarked) [Example 19] |
| 5 to 65 µM | 1 to 5 µM |  | N#Cc1cc(-c2cc3c(s2)CCCC32CCSC(N)=N2)ccn1 (centres unmarked) [Example 20] |
| 1 to 5 µM | 5 to 50 µM |  | NC1=NC2(CCCc3sc(-c4cccc(-c5ccccc5)c4)cc32)CCS1 (centres unmarked) [Example 21] |
| 5 to 65 µM | 1 to 5 µM |  | COc1ccc(-c2cc3c(s2)CCCC32CCSC(N)=N2)cc1C#N (centres unmarked) [Example 22] |
| 5 to 65 µM | 1 to 5 µM |  | COCc1cccc(-c2cc3c(s2)CCCC32CCSC(N)=N2)c1 (centres unmarked) [Example 23] |
| 1 to 5 µM | 5 to 50 µM |  | NC1=NC2(CCCc3sc(-c4cccc(OC(F)(F)F)c4)cc32)CCS1 (centres unmarked) [Example 24] |
| 1 to 5 µM | 5 to 50 µM |  | NC1=NC2(CCCc3sc(-c4cccc(C(F)(F)F)c4)cc32)CCS1 (centres unmarked) [Example 25] |
| 1 to 5 µM | 5 to 50 µM |  | NC1=NC2(CCCc3sc(-c4cccc(Oc5ccccc5)c4)cc32)CCS1 (centres unmarked) [Example 26] |
| 1 to 5 µM | 5 to 50 µM |  | CC(C)c1cccc(-c2cc3c(s2)CCCC32CCSC(N)=N2)c1 (centres unmarked) [Example 27] |
| 1 to 5 µM | 5 to 50 µM |  | NC1=NC2(CCCc3sc(-c4cccc(Cl)c4)cc32)CCS1 (centres unmarked) [Example 28] |
| 1 to 5 µM | 5 to 50 µM |  | NC1=NC2(CCCc3sc(-c4ccc(-c5ccccc5)cc4)cc32)CCS1 (centres unmarked) [Example 29] |
| 1 to 5 µM | 5 to 50 µM |  | NC1=NC2(CCCc3sc(-c4cccc(OCc5ccccc5)c4)cc32)CCS1 (centres unmarked) [Example 30] |
| 1 to 5 µM | 1 to 5 µM |  | N#Cc1cccc(-c2cc3c(s2)CCCC32CCSC(N)=N2)n1 (centres unmarked) [Example 31] |

| IC50 (BACE-1 [1]) | EC50 (BACE-1 [2]) | IC50 (BACE-1 [2]; reference inhibitor, inhibition of Aβ1-40 peptide secretion, 30,000 cells per well) | Compound |
| --- | --- | --- | --- |
| 1 to 5 µM | 5 to 50 µM |  | N#Cc1cc(-c2cc3c(s2)CCCC32CCSC(N)=N2)cc(C(F)(F)F)c1 (centres unmarked) [Example 32] |
| 1 to 5 µM | 5 to 50 µM |  | COc1ccc(-c2cccc(-c3cc4c(s3)CCCC43CCSC(N)=N3)c2)cc1 (centres unmarked) [Example 33] |
| 1 to 5 µM | 1 to 5 µM |  | N#Cc1cc(Cl)cc(-c2cc3c(s2)CCCC32CCSC(N)=N2)c1 (centres unmarked) [Example 34] |
| 1 to 5 µM | 1 to 5 µM |  | Cc1cc(C#N)cc(-c2cc3c(s2)CCCC32CCSC(N)=N2)c1 (centres unmarked) [Example 35] |
| 5 to 65 µM | 5 to 50 µM |  | NC1=NC2(CCCc3sc(-c4cccc(-c5ccccn5)c4)cc32)CCS1 (centres unmarked) [Example 36] |
| 5 to 65 µM | 5 to 50 µM |  | CC(C)(C)c1cccc(-c2cc3c(s2)CCCC32CCSC(N)=N2)c1 (centres unmarked) [Example 37] |
| 1 to 5 µM | 5 to 50 µM |  | COc1cccc(-c2cccc(-c3cc4c(s3)CCCC43CCSC(N)=N3)c2)c1 (centres unmarked) [Example 38] |
| 5 to 65 µM | 5 to 50 µM |  | NC1=NC2(CCCc3sc(-c4cccc(CC(F)(F)F)c4)cc32)CCS1 (centres unmarked) [Example 39] |
| 5 to 65 µM | 5 to 50 µM |  | NC1=NC2(CCCc3sc(NC(=O)c4ccc(Br)cn4)cc32)CCS1 (centres unmarked) [Example 40] |
| 1 to 5 µM | 5 to 50 µM |  | COc1cccc(-c2cccc(-c3cc4c(s3)CC(C)(C)CC43CCSC(N)=N3)c2)c1 (centres unmarked) [Example 41, 2-(3′-methoxybiphenyl-3-yl)-6,6-dimethyl-5′,6,6′,7-tetrahydro-5H-spiro[benzo[b]thiophene-4,4′-[1,3]thiazin]-2′-amine, Formate Salt] |
| 1 to 5 µM | 5 to 50 µM |  | COc1ccc(-c2cccc(-c3cc4c(s3)CC(C)(C)CC43CCSC(N)=N3)c2)cc1 (centres unmarked) [Example 42] |
| 5 to 65 µM | 5 to 50 µM |  | CC1(C)CCc2sc(-c3cccc(C(F)(F)F)c3)cc2C12CCSC(N)=N2 (centres unmarked) [Example 46, 5,5-dimethyl-2-(3-(trifluoromethyl)phenyl)-5′,6,6′,7-tetrahydro-5H-spiro[benzo[b]thiophene-4,4′-[1,3]thiazin]-2′-amine] |
| < 1 µM | ≤ 1 µM |  | CN1C(=O)C2(CCCc3sc(-c4cccc(C#N)c4)cc32)N=C1N (centres unmarked) [Example 49, 3-(2′-amino-1′-methyl-5′-oxo-1′,5′,6,7-tetrahydro-5H-spiro[benzo[b]thiophene-4,4′-imidazole]-2-yl)benzonitrile] |
| 5 to 65 µM | 1 to 5 µM |  | CN1C(=O)C2(CCCc3sc(-c4cccnc4)cc32)N=C1N (centres unmarked) [Example 52] |
| 1 to 5 µM | 5 to 50 µM |  | CN1C(=O)C2(CCCc3sc(-c4cccc(OC(F)(F)F)c4)cc32)N=C1N (centres unmarked) [Example 53] |
| < 1 µM | 1 to 5 µM |  | CN1C(=O)C2(CCCc3sc(-c4cccc(C(F)(F)F)c4)cc32)N=C1N (centres unmarked) [Example 54] |
| 1 to 5 µM | 1 to 5 µM |  | COc1cc(C#N)cc(-c2cc3c(s2)CCCC32N=C(N)N(C)C2=O)c1 (centres unmarked) [Example 55] |
| 1 to 5 µM | 1 to 5 µM |  | CN1C(=O)C2(CCCc3sc(-c4cccc(Cl)c4)cc32)N=C1N (centres unmarked) [Example 56] |
|  |  | 0.2 nM | C[C@H](NC(=O)Cc1cc(F)cc(F)c1)C(=O)N[C@@H]1C(=O)N(C)c2ccccc2-c2ccccc21 [reference compound] |
